Measurements as given in patent publication US8729013B2 (priority 2004, dated 2014).
≈ marks a conversion by molar mass, not a printed value. Non-standard residues stand in square brackets, D forms with d. Residues, ends and D or L forms follow the SMILES beside them. Orn(N5-OH,N5-Ac) = CC(=O)N(O)CCC[C@H](N)C(=O)O

How the values were obtained:
Assay type in all cases: cell-based, Staphylococcus aureus
[1] = test system: S. aureus H804 (Newman sirB::Tet); test: Minimum inhibitory concentration (MIC) in TMS; conditions: H804, bacteria grown in TMS
Excerpt: (§1) Streptonigrin is toxic to cells in the presence of intracellular iron and, therefore, cells importing iron are generally more sensitive to the toxic affects of this drug versus mutants debilitated in iron import (Yeowell et al. (1982) Antimicrob. Agents Chemother. 22:961-968). The minimum inhibitory concentration (MIC) of streptonigrin was approximately 4-fold lower for S. aureus Newman grown in TMS than for either S. aureus H803 or H804 grown in the same media (see Table 2).

[2] = test system: S. aureus H803 (Newman sirA::Km); test: Minimum inhibitory concentration (MIC) in TMS; conditions: H803, bacteria grown in TMS
Excerpt: as §1

S. aureus Newman = test: Minimum inhibitory concentration (MIC) in TMS
Excerpt: as §1

[3] = test system: H1071 (RN6390 ΔfhuCBG::ermB); test: Siderophore plate bioassay (iron source utilization); conditions: TMS agar, 25 μM EDDHA; compared with wildtype
Experimental: Siderophore plate bioassays were performed essentially as described (Sebulsky et al. (2000) J. Bacteriol. 182:4394-4400). Briefly, 10^4 cells/mL were added to molten TMS agar containing 25 μM EDDHA as an iron chelating agent. Ten microliters of iron sources to be tested (DESFERAL® (50 μM), ferrichrome (50 μM), enterobactin (500 μM), staphylobactin (50 μM DESFERAL® equivalents), hemin (250 μg/mL), hemoglobin (2 mg/mL), FeCl3 (50 mM), or ferric citrate (5 mM)) were added to sterile 6 mm-diameter paper disks and placed on the surface of the plates. Growth promotion, as measured by the diameter of the growth halo around each disk, was determined after 48 h incubation, except for heme and hemoglobin, which were measured after 72 hours.

sirA and sirB mutants = test: Siderophore plate bioassay (growth promotion); conditions: data not shown
Experimental: Siderophore plate bioassays were performed essentially as previously described (Sebulsky et al. (2000) J. Bacteriol. 182:4394-4400) with the following modifications: TMS-agar was cooled to 45° C. before the addition of 10^5 cfu/ml of each strain to be tested. 2,2′-dipyridyl was added at a concentration of 550 μM for plates containing S. aureus Newman and Newman containing vehicle controls (e.g. pAW8 and pALC2073) or 400 μM 2,2′-dipyridyl for strains H803 (Newman sirA::Km) and H804 (Newman sirB::Tet) (see FIG. 1) with or without plasmids. Staphylobactin siderophore was isolated from RN6390 as previously described (Dale et al. (2004) Infect. Immun. 72:29-37). Briefly, S. aureus strains were vigorously shaken in TMS for 48 hours at 37° C. Culture supernatants were recovered by centrifugation in 100% methanol to 1/10 of the volume of the original culture supernatant and passed through Whatman No. 1 filter paper to remove particulate material. Rotary evaporation was used to reduce the volume before application to an LH-20 column (Amersham Biosciences). Fractions were collected, and those testing positive with chrome azurol S (CAS) shuttle solution and for biological activity in siderophore plate bioassays were dried, resuspended in water, and examined by high-performance liquid chromatography (HPLC). Analytical reversed-phase HPLC was used for final purification of siderophore. The column utilized was a Waters ODS2 SPherisorb column (4.6 by 150 mm). Trifluoroacetic acid (0.1%) in water represented solvent A whereas 0.1% trifluoroacetic acid in acetonitrile was used as solvent B. The chromatographic method used was as follows: at a flow rate of 0.75 ml/min, 6% B for 3.5 min., followed by a gradient of 6 to 60% B over 20 min. […] Staphylobactin was collected, dried, and rechromatographed to check for purity. The purity of Staphylobactin siderophore was confirmed by HPLC analysis. Aerobactin was purchased from EMC microcollections and used at a concentration of 1 μg/ml as a control in all bioassays.

[4] = Staphylococcus aureus, NEWMAN, read-out: MIC Streptonigrin

Compound	utilization as iron source by H1071 [3]	growth promotion in mutants (sirA and sirB mutants)	further results
c1ccc(-c2ccccn2)nc1 [2,2′-dipyridyl]			MIC 2,2′-dipyridyl [1]: 125 µM (≈ 19.5 µg/mL); MIC 2,2′-dipyridyl [2]: 125 µM (≈ 19.5 µg/mL); MIC higher for Newman than for H803 or H804 (S. aureus Newman): 4 fold; MIC 2,2′-dipyridyl (S. aureus Newman; Newman, bacteria grown in TMS): 500 µM (≈ 78.1 µg/mL)
CC(=O)N(O)CCCCCNC(=O)CCC(=O)N(O)CCCCCNC(=O)CCC(=O)N(O)CCCCCN [DESFERAL®, desferrioxamine B]	unable to utilize	unaffected	
COC1=C(N)C(=O)c2nc(-c3nc(C(=O)O)c(C)c(-c4ccc(OC)c(OC)c4O)c3N)ccc2C1=O [Streptonigrin, streptonigrin]			MIC [1, 4]: 8 ng/mL (≈ 0.0158 µM); MIC [2, 4]: 8 ng/mL (≈ 0.0158 µM); MIC Streptonigrin (S. aureus Newman; Newman, bacteria grown in TMS): 2 ng/mL (≈ 0.00395 µM); MIC (S. aureus Newman; Staphylococcus aureus, Newman + 50 μM DESFERAL, TMS, read-out: MIC Streptonigrin): 2 ng/mL; MIC lower for Newman than for H803 or H804 (S. aureus Newman; grown in TMS): approximately 4 fold
CC(=O)N(O)CCCC[C@H](NC(=O)CC(O)(CC(=O)N[C@@H](CCCCN(O)C(C)=O)C(=O)O)C(=O)O)C(=O)O [aerobactin]	unable to utilize	unaffected	
CC(=O)N[C@@H](CCCN([O-])C(=O)/C=C(\C)CCO)C(=O)OCC/C(C)=C/C(=O)N([O-])CCC[C@@H]1NC(=O)[C@H](CCCN([O-])C(=O)/C=C(\C)CCO)NC1=O.[Fe+3] [coprogen]	unable to utilize		
O=C(N[C@H]1COC(=O)[C@@H](NC(=O)c2cccc(O)c2O)COC(=O)[C@@H](NC(=O)c2cccc(O)c2O)COC1=O)c1cccc(O)c1O [enterobactin]	not significantly impaired		
CC(=O)N([O-])CCC[C@@H]1NC(=O)CNC(=O)CNC(=O)CNC(=O)[C@H](CCCN([O-])C(C)=O)NC(=O)[C@H](CCCN([O-])C(C)=O)NC1=O.[Fe+3] [ferrichrome] (cyclo(GGG[Orn(N5-OH,N5-Ac)][Orn(N5-OH,N5-Ac)][Orn(N5-OH,N5-Ac)]))	unable to utilize		
ferric citrate	not significantly impaired	unaffected	
hemin	not significantly impaired		
hemoglobin	not significantly impaired		
